Results as given in patent US7977366B2, “Treating an inflammatory disorder or inhibiting respiratory burst in adherent neutrophils with chemical inhibitors of neutrophil activation” (Cornell Research Foundation, Inc., priority 2003, dated 2011).
Entries after “also recorded” stand apart in the source; their conditions may differ. Like-named read-outs stand apart in the source and are kept apart here.

Columns and labels:
human neutrophils [1] = experiment: TNF-triggered H2O2 release (respiratory burst) by adherent human neutrophils; format: cell-based; conditions: for IC50: Homo sapiens, Neutrophil, TNF 100 ng/ml; for Concentration that consistently yielded over 95% inhibition on TNF triggered RB: empirically decided for each compound
Procedure: Contaminating erythrocytes were lysed by hypotonic shock for 45 seconds with 0.2% saline.
Briefly, 15,000 compounds were screened to identify specific inhibitors of TNF-triggered H2O2 release in human neutrophils. H2O2 release was measured as above except a few modifications to adapt to high throughput screening. […] Percent inhibition by each compound was calculated using the formula: […]
Briefly, 96-well flat-bottomed plates (Primaria, Falcon) were coated with 50 μl/well of FBS in 5% CO2 at 37° C. for at least 1 h and washed three times with 0.9% saline. Neutrophils (1.5×10^4) were added to triplicate wells containing 100 μl of reaction mixture (2.4 nm scopoletin, 0.5 μg horseradish peroxidase (HRP), and 1 mM NaN3) and stimulated with either buffer control, TNF (PreproTech, London, UK) or phorbol myristate acetate (PMA), each at 100 ng/ml. […] The supernatant from the H2O2 release assay with 1.5×10^4 neutrophils was used to measure degranulation using lactoferrin (LF) or myeloperoxidase (MPO) ELISA kit (Oxis International, Inc., Portland, Oreg.). Spontaneous cell death from the same supernatant was measured using Cytotoxicity Detection Kit (Roche Molecular Biochemicals, Nutley, N.J.). The total cell content of LF, MPO, and lactate dehydrogenase (LDH) was determined after lysing cells with 1% Triton X100. LDH is a cytosolic enzyme whose release indicates cell lysis, such that high release of LF or MPO in the face of low release of LDH is taken as a measure of degranulation.

human neutrophils [2] = experiment: Neutrophil spreading on FBS-coated glass coverslips (phase-contrast microscopy); format: cell-based; conditions: TNF 100 ng/ml
Procedure: Glass coverslips were placed in 12 well tissue culture plate and coated with FBS in 5% CO2 at 37° C. for at least 1 h and washed three times with 0.9% saline. Neutrophils (2×10^6) were added to each well containing a FBS-coated glass coverslip and 1 ml of reaction mixture and incubated or not with each compound at 37° C. for 30 min before stimulation with TNF (100 ng/ml), PMA (100 ng/ml) or an equal volume of KRPG. Cells were fixed with 2% paraformaldehyde and 3.7% formaldehyde buffer, and photographed with phase-contrast microscope.
To determine whether any of these compounds are implicated in cytoskeletal rearrangement, neutrophils were treated with a compound of the present invention or DMSO and then activated with PMA or TNF. Human neutrophils, isolated as described herein above were plated on FBS-coated glass coverslips and incubated or not with a compound of the present invention at 37° C. for 30 min, followed by stimulation with TNF (100 ng/ml), PMA (100 ng/ml) or an equal volume of KRPG, fixed, and photographed with phase-contrast microscope. Neutrophils adhere and fully spread when activated. However, cells exposed to TNF after incubation with Comp I-IV were arrested in spreading. These compounds seem to block different stages of cell spreading. […] They display almost round and close to non-stimulated cell morphology to quite advanced, yet arrested phenotype before full spreading. […] None of the compounds impeded cell spreading induced by PMA.

Syk = experiment: TNF and adhesion triggered tyrosine phosphorylation of Syk in neutrophils (immunoprecipitation, western blot); format: cell-based, human; conditions: for TNF and adhesion triggered tyrosine phosphorylation (activation) of Syk: result in words; for inhibition of TNF and adhesion triggered tyrosine phosphorylation of Syk: moderately inhibited
Procedure: Tissue culture plates (Primaria, Falcon) were coated with 3 ml of FBS in 5% CO2 at 37° C. for at least 1 h and washed twice with 0.9% saline. Isolated human neutrophils (1.5×10^6) were added to each plate containing 4 ml of reaction mixture, incubated with each compound at 37° C. for 30 min, and stimulated with either buffer control or TNF (100 ng/ml). When cells were fully spread (20-40 min), they were treated with 5 mM diisopropylfluorophosphate to inhibit serine proteases and lysed with either 125 μl of SDS lysis buffer (10 mM Tris-HCl, pH 7.6, 150 mM NaCl, 1% SDS, 1 mM PMSF, 1 mM Na pyrophosphate, 1 mM NaF, 1 mM vanadate, 5 μg/ml each of aprotinin, leupeptin, chymostatin, pepstatin A) for western blot, or with 200 μl of non-denaturing modified RIPA buffer (10 mM Tris-HCl, pH 7.6, 150 mM NaCl, 1% Triton-X100, 1 mM PMSF, 1 mM Na pyrophosphate, 1 mM NaF, 1 mM vanadate, 5 μg/ml each of aprotinin, leupeptin, chymostatin, pepstatin A) for immunoprecipitation. The cell lysate was passed through a 26-gauge needle six times to shear DNA and centrifuged at 20,000×g for 15 min to remove cell debris and DNA. The protein concentration was determined using a Bio-Rad (Indianapolis, Ind.) kit. Cell lysates were separated by SDS-PAGE and transferred electrophoretically to nitrocellulose membranes (Schleicher & Schuell, Inc., Keene, N.H.). The membranes were incubated with 5% milk in TBST ([…], 0.1% Tween-20) for 1 h at 37° C. and then overnight at 4° C. with anti-phosphotyrosine antibody (Santa Cruz), anti-Syk antibody (Transduction Laboratories, Newington, N.H.), anti-phospho-specific Pyk2 antibodies (Biosource International, Camarillo, Calif.), or anti-Pyk2 antibody (Upstate Biotech, Waltham, Mass.). Membranes were washed with TBST and incubated with secondary Ab conjugated with HRP in 5% milk in TBST for 1 h at 37° C. After further washing with TBST, bound antibody was detected by enhanced chemiluminescence (Pierce ECL, Amersham Pharmacia, Piscataway, N.J.).
Also investigated was the impact of the compounds of the present invention on several known tyrosine kinases such as Src, Syk, and Pyk2, which are shown to be critical in the signaling pathways triggered by TNF. Kinase assays were performed according to the instructions provided by United Bioinformatica, Inc. ((UBI) Calgary, AB, Canada), from which recombinant Src and Syk were purchased. Briefly, after incubation of recombinant Src (40 U) (UBI, Calgary, AB, Canada) with each compound at RT for 30 min, Src kinase reaction buffer (100 mM Tris-HCl, pH 7.2, 125 mM MgCl2, 25 mM MnCl2, 2 mM EGTA, 0.25 mM NaOV4, 2 mM DTT), Src kinase substrate peptide (375 μM, UBI, Calgary, AB, Canada), and [γ-32P]ATP were added to the enzyme. After incubation at 30° C. for 10 min, the reaction was stopped by addition of 40% trichloroacetic acid (TCA). Samples were transferred to a P81 paper square (UBI, Calgary, AB, Canada), the unincorporated radioactivity was washed off with 0.75% phosphoric acid and acetone, and the assay square was placed in a scintillation counter. For Syk kinase assay, reaction buffer contained 50 mM Tris-HCl, pH 7.5, 0.1 mM EGTA, 0.1 mM NaOV4, 0.15 M 2-mercaptoethanol and substrate was poly (Glu-4-Tyr)(4:1) (CSI Biointernational, France). […] It appears that these compounds block—partially by Comp I and II and completely by Comp III and IV—upstream signaling events for Syk activation rather than directly blocking Syk activity.

[3] = 1.5 h, H2O2 release at 90 min, read-out: IC50, TNF triggered H2O2 release

Row | SMILES | IC50 (human neutrophils [1]; range given with mixed units nM and μM, read-out: IC50, TNF triggered H2O2 release (very variable)) | Concentration that consistently yielded over 95% inhibition on TNF triggered RB (human neutrophils [1]) | cell spreading triggered by TNF (human neutrophils [2]) | TNF and adhesion triggered tyrosine phosphorylation (activation) of Syk (Syk) | IC50 (human neutrophils [1]; [3]) | inhibition of TNF and adhesion triggered tyrosine phosphorylation of Syk (Syk) | effect on TNF triggered H2O2 release (respiratory burst) (human neutrophils [1]; result in words)
1 | O=C(CSc1nc2ccccc2s1)N/N=C/c1cc([N+](=O)[O-])ccc1O [Comp IV, (Benzothiazol-2-ylsulfanyl)-acetic acid (2-hydroxy-5-nitro-benzylidene) -hydrazide] | 3 to 2000 nM | 10 µM | arrested after flattening and extending several filopodia | completely inhibited |  |  | 
2 | C(=N\Nc1ncnc2sc3c(c12)CCCC3)/c1cccnc1 [Comp III, N-Pyridin-3-ylmethylene-N-(5,6,7,8-tetrahydro-benzo[4,5] [2,3-a]pyrimidin-4-yl)-hydrazine] |  | 5 µM | after extending a few pseudopodia; also recorded: block cell spreading at the earliest stage | completely inhibited | 2500 ± 1500 nM |  | 
3 | Cc1nc(N/N=C/c2ccccc2O)c2c3c(sc2n1)CCCC3 [Comp I, 2-[(2-Methyl-5,6,7,8-tetrahydro-benzo[4,5]thieno [2,3-a]pyrimidin-4-yl)-hydrazonomethyl]-phenol] |  | 2 µM | very heterogeneous morphology |  | ~180 nM | about 50% | 
4 | O=C1CC(c2ccccc2)=NN1c1cccc(Cl)c1 [Comp II, 2-(3-Chloro-phenyl)-5-phenyl-2,4-dihydro-pyrazol-3-one] |  | 5 µM | arrested after flattening and extending several filopodia; also recorded: inhibited | did not block | 1600 ± 400 nM | about 50% | inhibited
